Measured values taken from patent US20250145607A1, “Modulators of CAMKK2 as Ligand Directed Degraders” (Celgene Corporation, priority 2021, published 2025).

Target: T1, Enhanced ProLabel (ePL)-Tagged CAMKK2 (Homo sapiens, UniProt Q96RR4)
T1 construct: expressed in transfected cells
Assay: Degradation of stably expressed ePL-tagged CAMKK2 in 293T cells (InCELL Hunter luminescence, 24 h)
Assay type: cell-based
Conditions: minimum % protein remaining; ePL-CAMKK2 293T cells, 24 h incubation
Protocol: Cells were dispensed into 384 well plates pre-spotted with serial diluted test compounds. After 24 h incubation, degradation was terminated by the addition of DiscoverX InCELL Hunter Detection reagent.
Assay plates were incubated at 37° C. with 5% CO2 for 24 hours. Plates were kept at room temperature for 30 min, after which 25 μL of the InCELL Hunter Detection Reagent Working Solution was added (catalog number 96-0002, DiscoverX, Fremont, CA). After plates were incubated at room temperature for 30 min, protected from light, luminescence was read on a PHERAstar reader (BMG LABTECH, Cary, N.C.). Data was normalized and fit using Activity Base (IDBS, Alameda, Calif.) as described below.
A Four Parameter Logistic Model (Sigmoidal Dose-Response Model, equation 1) was used to determine the compound's EC50 and degradation Ymin.
where C is CAMKK2 degradation potency EC50, D is the […], A is the lower limit reported as Ymin. Ymin and EC50 were used to characterize compound-mediated CAMKK2 degradation efficiency.

T1 sequence (Q96RR4 whole entry): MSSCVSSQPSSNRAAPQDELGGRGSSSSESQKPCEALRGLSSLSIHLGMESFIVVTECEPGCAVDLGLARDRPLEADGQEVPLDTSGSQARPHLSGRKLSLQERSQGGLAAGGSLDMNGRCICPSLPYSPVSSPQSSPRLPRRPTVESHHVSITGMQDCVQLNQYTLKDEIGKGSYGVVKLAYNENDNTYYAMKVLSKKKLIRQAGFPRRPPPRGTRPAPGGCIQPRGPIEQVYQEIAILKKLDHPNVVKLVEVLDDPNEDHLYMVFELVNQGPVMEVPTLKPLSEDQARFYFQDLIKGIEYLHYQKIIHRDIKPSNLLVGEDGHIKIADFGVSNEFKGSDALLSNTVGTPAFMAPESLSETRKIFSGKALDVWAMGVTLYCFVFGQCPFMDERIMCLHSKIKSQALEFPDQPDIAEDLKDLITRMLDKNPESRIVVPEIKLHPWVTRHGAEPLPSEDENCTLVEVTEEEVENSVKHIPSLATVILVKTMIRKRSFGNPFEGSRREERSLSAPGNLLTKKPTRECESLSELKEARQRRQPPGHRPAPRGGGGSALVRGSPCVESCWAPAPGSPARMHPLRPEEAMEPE

Compound	(ePL) HEK293 24 h CAMKK2 Ymin(%)
Cc1ncsc1-c1ccc(CNC(=O)[C@@H]2C[C@@H](O)CN2C(=O)[C@@H](NC(=O)CCCCCCCCCCOc2ccc3c(-c4ccc(C(=O)O)c(C5CCCC5)c4)ncnc3c2)C(C)(C)C)cc1 (racemic) [Compound 2, 2-cyclopentyl-4-[7-[11-oxo-11-[[rac-(1S)-2,2-dimethyl-1-[rac-(2S,4R)-4-hydroxy-2-[[4-(4-methylthiazol-5-yl)phenyl]methylcarbamoyl]pyrrolidine-1-carbonyl]propyl]amino]undecoxy]quinazolin-4-yl]benzoic acid]	37
Cc1ncsc1-c1ccc(CNC(=O)[C@@H]2C[C@@H](O)CN2C(=O)[C@@H](NC(=O)CCCCCCOc2ccc3c(-c4ccc(C(=O)O)c(C5CCCC5)c4)ncnc3c2)C(C)(C)C)cc1 (racemic) [Compound 6, 2-cyclopentyl-4-[7-[7-oxo-7-[[rac-(1S)-2,2-dimethyl-1-[rac-(2S,4R)-4-hydroxy-2-[[4-(4-methylthiazol-5-yl)phenyl]methylcarbamoyl]pyrrolidine-1-carbonyl]propyl]amino]heptoxy]quinazolin-4-yl]benzoic acid]	42
Cc1ncsc1-c1ccc(CNC(=O)[C@@H]2C[C@@H](O)CN2C(=O)[C@@H](NC(=O)CCCCCCCOc2ccc3c(-c4ccc(C(=O)O)c(C5CCCC5)c4)ncnc3c2)C(C)(C)C)cc1 [Compound 5]	32
Cc1ncsc1-c1ccc(CNC(=O)[C@@H]2C[C@@H](O)CN2C(=O)[C@@H](NC(=O)CCCCCCCCOc2ccc3c(-c4ccc(C(=O)O)c(C5CCCC5)c4)ncnc3c2)C(C)(C)C)cc1 [Compound 4, 2-cyclopentyl-4-[7-[9-[[(1S)-1-[(2S,4R)-4-hydroxy-2-[[4-(4-methylthiazol-5-yl)phenyl]methylcarbamoyl]pyrrolidine-1-carbonyl]-2,2-dimethyl-propyl]amino]-9-oxo-nonoxy]quinazolin-4-yl]benzoic acid]	19
Cc1ncsc1-c1ccc(CNC(=O)[C@@H]2C[C@@H](O)CN2C(=O)[C@@H](NC(=O)CCCCCCCCCCCOc2ccc3c(-c4ccc(C(=O)O)c(C5CCCC5)c4)ncnc3c2)C(C)(C)C)cc1 [Compound 1, 2-cyclopentyl-4-[7-[12-[[(1S)-1-[(2S,4R)-4-hydroxy-2-[[4-(4-methylthiazol-5-yl)phenyl]methylcarbamoyl]pyrrolidine-1-carbonyl]-2,2-dimethyl-propyl]amino]-12-oxo-dodecoxy]quinazolin-4-yl]benzoic acid]	43
